{"source": "patent US11395847B2", "about": "“Acylated GLP-1/GLP-2 dual agonists” (Zealand Pharma A/S, priority 2016, dated 2022)", "key": {"human GLP-1 receptor": {"molecular_target": "T1, human GLP-1 receptor (Homo sapiens, UniProt P43220)", "T1 construct": "expressed in transfected cells", "T1 sequence (P43220 24-463)": "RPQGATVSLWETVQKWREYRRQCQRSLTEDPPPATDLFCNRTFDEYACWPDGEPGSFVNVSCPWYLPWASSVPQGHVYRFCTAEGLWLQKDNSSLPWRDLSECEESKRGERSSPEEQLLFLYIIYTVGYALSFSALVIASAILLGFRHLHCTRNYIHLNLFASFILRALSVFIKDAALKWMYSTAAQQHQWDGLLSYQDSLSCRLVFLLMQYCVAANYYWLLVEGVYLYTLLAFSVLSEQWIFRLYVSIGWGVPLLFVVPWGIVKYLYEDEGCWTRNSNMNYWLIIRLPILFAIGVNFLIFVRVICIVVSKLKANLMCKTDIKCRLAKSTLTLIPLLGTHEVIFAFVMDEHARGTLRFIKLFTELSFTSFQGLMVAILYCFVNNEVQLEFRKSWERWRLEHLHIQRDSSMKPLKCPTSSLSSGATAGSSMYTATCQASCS", "assay": "GLP-1 receptor potency assay (cAMP ALPHASCREEN, HEK293 cells stably expressing GLP-1 R)", "type": "cell-based", "conditions": "cAMP response, HEK293 cells expressing human GLP-1 R", "from_the_text": "One useful in vitro assay for measuring GLP-1 and GLP-2 receptor activity is quantitation of cAMP, i.e. 3′-5′-cyclic adenosine monophosphate, which is a second messenger essential in many biological processes, and one of the most ubiquitous mechanisms for regulating cellular functions.\nThe cDNA encoding the human glucagon-like peptide 1 receptor (GLP-1 R) (primary accession number P43220) was cloned from the cDNA BC112126 (MGC:138331/IMAGE:8327594). The DNA encoding the GLP-1-R was amplified by PCR using primers encoding terminal restriction sites for subcloning. The 5′-end primers additionally encoded a near Kozak consensus sequence to ensure efficient translation. […] The PCR products encoding the GLP-1-R were subcloned into a mammalian expression vector containing a neomycin (G418) resistance marker. The mammalian expression vectors encoding the GLP-1-R were transfected into HEK293 cells by a standard calcium phosphate transfection method. 48 hours post-transfection, cells were seeded for limited dilution cloning and selected with 1 mg/ml G418 in the culture medium. Following 3 weeks in G418 selection clones were picked and tested in a functional GLP-1 receptor potency assay as described below.\nThe cAMP ALPHASCREEN® assay from Perkin Elmer was used to quantitate the cAMP response to activation of the GLP1 and GLP2 receptor, respectively. […] Data from test compounds eliciting an increase in the intracellular level of cAMP were normalized relative to the positive and negative control (vehicle) to calculate the EC50 and maximal response from the concentration response curve."}, "human GLP-2 receptor": {"molecular_target": "T2, human GLP-2 receptor (Homo sapiens, UniProt O95838, D470N)", "T2 construct": "expressed in transfected cells", "T2 sequence (O95838 1-553 D470N)": "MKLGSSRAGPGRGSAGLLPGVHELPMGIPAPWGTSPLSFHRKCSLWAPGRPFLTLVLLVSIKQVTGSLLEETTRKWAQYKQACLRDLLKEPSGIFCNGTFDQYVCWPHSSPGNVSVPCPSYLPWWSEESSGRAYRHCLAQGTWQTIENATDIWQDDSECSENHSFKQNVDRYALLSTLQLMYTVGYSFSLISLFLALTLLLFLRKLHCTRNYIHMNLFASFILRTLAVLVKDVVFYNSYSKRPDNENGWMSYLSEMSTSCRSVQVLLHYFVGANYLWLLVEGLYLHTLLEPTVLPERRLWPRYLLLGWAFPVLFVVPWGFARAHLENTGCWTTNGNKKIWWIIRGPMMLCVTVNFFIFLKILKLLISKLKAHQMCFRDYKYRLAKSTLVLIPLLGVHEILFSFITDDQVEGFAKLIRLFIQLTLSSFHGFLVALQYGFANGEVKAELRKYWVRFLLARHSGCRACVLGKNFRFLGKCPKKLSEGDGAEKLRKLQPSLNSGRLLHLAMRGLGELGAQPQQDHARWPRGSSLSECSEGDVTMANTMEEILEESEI", "assay": "GLP-2 receptor potency assay (cAMP ALPHASCREEN, HEK293 cells stably expressing GLP-2 R)", "type": "cell-based", "conditions": "cAMP response, HEK293 cells expressing human GLP-2 R; read-out: EC50 GLP-2", "outline": "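HEK293 clones stably transfected with the human GLP-2 receptor, selected with G418, were used. Intracellular cAMP was quantified by AlphaScreen. Responses were normalised to positive and vehicle controls, and EC50 and maximal response were taken from concentration-response curves.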"}, "[1]": {"assay": "Chemical stability (RP-HPLC normalized purity after incubation at 40° C.)", "type": "physicochemical", "conditions": "14-day incubation, 0.2 mg/ml, normalized purity (area-%)", "outline": "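Peptide at 0.2 mg/ml final in water adjusted to pH 6, 7, 7.5 or 9, incubated at 40° C for 14 days. Purity measured as main-peak area-% by C18 RP-HPLC (acetonitrile/TFA/water gradient, UV 220 nm) and normalized to T=0 set at 100 for each pH.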"}, "[2]": {"assay": "Solubility assessment (turbidity absorbance at 325 nm)", "type": "physicochemical", "outline": "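Peptide stock at 2 mg/ml in water at pH 2.5 diluted 1:1 into 100 mM acetate (pH 4.0, 5.0), histidine (pH 6.0, 7.0) or phosphate (pH 6.0, 7.0, 7.5) buffer. Absorbance at 280 and 325 nm read at ambient temperature (typically 25 °C), single samples (n=1).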"}}, "note": "Where two headings read alike, the source gives them in different places. Where a SMILES comes first, the peptide text is derived from it. [ ]: non-standard residue; d: D form. The star is where a group is joined. Stearoyl = CCCCCCCCCCCCCCCCCC(=O)*; Aib = CC(C)(N)C(=O)O"}
{"smiles": "CCCCCCCCCCCCCCCCCC(=O)NCCCC[C@H](NC(=O)[C@H](CC(=O)O)NC(=O)[C@H](CC(C)C)NC(=O)[C@@H](NC(=O)[C@@H](NC(=O)[C@H](C)NC(=O)[C@H](CC(C)C)NC(=O)[C@H](CCC(=O)O)NC(=O)[C@H](CO)NC(=O)[C@@H](NC(=O)[C@H](Cc1ccccc1)NC(=O)[C@H](CO)NC(=O)CNC(=O)[C@H](CCC(=O)O)NC(=O)C(C)(C)NC(=O)[C@@H](N)Cc1c[nH]cn1)[C@@H](C)O)[C@@H](C)O)[C@@H](C)CC)C(=O)N[C@@H](CCC(N)=O)C(=O)N[C@@H](C)C(=O)N[C@@H](C)C(=O)N[C@@H](CCCNC(=N)N)C(=O)N[C@@H](CC(=O)O)C(=O)N[C@@H](Cc1ccccc1)C(=O)N[C@H](C(=O)N[C@@H](C)C(=O)N[C@@H](Cc1c[nH]c2ccccc12)C(=O)N[C@@H](CC(C)C)C(=O)N[C@H](C(=O)N[C@@H](CCC(N)=O)C(=O)N[C@@H](Cc1ccc(O)cc1)C(=O)N[C@@H](CCCCN)C(=O)N[C@H](C(=O)N[C@H](C(=O)N[C@@H](CC(=O)O)C(=O)O)[C@@H](C)O)[C@@H](C)CC)[C@@H](C)CC)[C@@H](C)CC", "note": "[Compound 36] (H-H[Aib]EGSFTSELATILDK(Stearoyl)QAARDFIAWLIQYKITD-OH)", "values": [{"measurement": "EC50", "setting": "human GLP-1 receptor", "value": 0.32, "unit": "nM"}]}
{"smiles": "CC[C@H](C)[C@H](NC(=O)[C@H](CC(C)C)NC(=O)[C@H](Cc1c[nH]c2ccccc12)NC(=O)[C@H](C)NC(=O)[C@@H](NC(=O)[C@H](Cc1ccccc1)NC(=O)[C@H](CC(=O)O)NC(=O)[C@H](CCCNC(=N)N)NC(=O)[C@H](C)NC(=O)[C@H](C)NC(=O)[C@H](CCC(N)=O)NC(=O)[C@H](CCCCNC(=O)CC[C@H](NC(=O)CCCCCCCCCCCCCCCCC(=O)O)C(=O)O)NC(=O)[C@H](CC(=O)O)NC(=O)[C@H](CC(C)C)NC(=O)[C@@H](NC(=O)[C@@H](NC(=O)[C@H](C)NC(=O)[C@H](CC(C)C)NC(=O)[C@H](CCC(=O)O)NC(=O)[C@H](CO)NC(=O)[C@@H](NC(=O)[C@H](Cc1ccccc1)NC(=O)[C@H](CO)NC(=O)CNC(=O)[C@H](CCC(=O)O)NC(=O)C(C)(C)NC(=O)[C@@H](N)Cc1c[nH]cn1)[C@@H](C)O)[C@@H](C)O)[C@@H](C)CC)[C@@H](C)CC)C(=O)N[C@@H](C)C(=O)N[C@@H](Cc1c[nH]cn1)C(=O)N[C@@H](CCCCN)C(=O)N[C@H](C(=O)N[C@H](C(=O)N[C@@H](CC(=O)O)C(=O)O)[C@@H](C)O)[C@@H](C)CC", "note": "[Compound 22] (HELM PEPTIDE1{H.[Aib].E.G.S.F.T.S.E.L.A.T.I.L.D.K.Q.A.A.R.D.F.I.A.W.L.I.A.H.K.I.T.D}|PEPTIDE2{[O=C(O)CCCCCCCCCCCCCCCCC(=O)[*:2]].[gGlu]}$PEPTIDE1,PEPTIDE2,16:R3-2:R2$$$V2.0)", "values": [{"measurement": "EC50", "setting": "human GLP-2 receptor", "value": 0.2, "unit": "nM"}, {"measurement": "pH 6 normalized stability", "setting": "[1]; pH 6, 40° C.", "value": "A (>90% normalised stability)"}, {"measurement": "pH 7 normalized stability", "setting": "[1]; pH 7, 40° C.", "value": "B (>80% stability)"}, {"measurement": "solubility", "setting": "[2]; 100 mM acetate buffer pH 4.0, ambient temperature, read-out: Solubility Acetate buffer pH 4", "value": "< 1000", "unit": "µg/mL"}, {"measurement": "solubility", "setting": "[2]; 100 mM acetate buffer pH 5.0, ambient temperature, read-out: Solubility Acetate buffer pH 5", "value": "< 1000", "unit": "µg/mL"}, {"measurement": "solubility", "setting": "[2]; 100 mM histidine buffer pH 6.0, ambient temperature, read-out: Solubility Histidine buffer pH 6", "value": "≥ 1000", "unit": "µg/mL"}, {"measurement": "solubility", "setting": "[2]; 100 mM histidine buffer pH 7.0, ambient temperature, read-out: Solubility Histidine buffer pH 7", "value": "≥ 1000", "unit": "µg/mL"}, {"measurement": "solubility", "setting": "[2]; 100 mM phosphate buffer pH 6.0, ambient temperature, read-out: Solubility Phosphate buffer pH 6", "value": "≥ 1000", "unit": "µg/mL"}, {"measurement": "solubility", "setting": "[2]; 100 mM phosphate buffer pH 7.0, ambient temperature, read-out: Solubility Phosphate buffer pH 7", "value": "≥ 1000", "unit": "µg/mL"}, {"measurement": "solubility", "setting": "[2]; 100 mM phosphate buffer pH 7.5, ambient temperature, read-out: Solubility Phosphate buffer pH 7.5", "value": "≥ 1000", "unit": "µg/mL"}]}
{"smiles": "CC[C@H](C)[C@H](NC(=O)[C@H](Cc1ccccc1)NC(=O)[C@H](CC(=O)O)NC(=O)[C@H](CCCNC(=N)N)NC(=O)[C@H](C)NC(=O)[C@H](C)NC(=O)[C@H](CCC(N)=O)NC(=O)[C@H](CCCCNC(=O)COCCOCCNC(=O)[C@H](CCCCN)NC(=O)[C@H](CCC(=O)O)NC(=O)[C@H](CCCCN)NC(=O)CC[C@H](NC(=O)CCCCCCCCCCCCCCCCCCC(=O)O)C(=O)O)NC(=O)[C@H](CC(=O)O)NC(=O)[C@H](CC(C)C)NC(=O)[C@@H](NC(=O)[C@@H](NC(=O)[C@H](C)NC(=O)[C@H](CC(C)C)NC(=O)[C@H](CCC(=O)O)NC(=O)[C@H](CO)NC(=O)[C@@H](NC(=O)[C@H](Cc1ccccc1)NC(=O)[C@@H](NC(=O)CNC(=O)[C@H](CCC(=O)O)NC(=O)C(C)(C)NC(=O)[C@@H](N)Cc1c[nH]cn1)[C@@H](C)O)[C@@H](C)O)[C@@H](C)O)[C@@H](C)CC)C(=O)N[C@@H](C)C(=O)N[C@@H](Cc1c[nH]c2ccccc12)C(=O)N[C@@H](CC(C)C)C(=O)N[C@H](C(=O)N[C@@H](CCC(N)=O)C(=O)N[C@@H](Cc1c[nH]cn1)C(=O)N[C@@H](CCCCN)C(=O)N[C@H](C(=O)N[C@H](C(=O)N[C@@H](CC(=O)O)C(=O)O)[C@@H](C)O)[C@@H](C)CC)[C@@H](C)CC", "note": "[Compound 52] (HELM PEPTIDE1{H.[Aib].E.G.T.F.T.S.E.L.A.T.I.L.D.K.Q.A.A.R.D.F.I.A.W.L.I.Q.H.K.I.T.D}|PEPTIDE2{[O=C(O)CCCCCCCCCCCCCCCCCCC(=O)[*:2]].[gGlu].K.E.K.[O=C(COCCOCCN[*:1])[*:2]]}$PEPTIDE1,PEPTIDE2,16:R3-6:R2$$$V2.0)", "values": [{"measurement": "EC50", "setting": "human GLP-1 receptor", "value": 0.02, "unit": "nM"}]}
{"smiles": "CC[C@H](C)[C@H](NC(=O)[C@H](CC(C)C)NC(=O)[C@H](Cc1c[nH]c2ccccc12)NC(=O)[C@H](C)NC(=O)[C@@H](NC(=O)[C@H](Cc1ccccc1)NC(=O)[C@H](CC(=O)O)NC(=O)[C@H](CCCNC(=N)N)NC(=O)[C@H](C)NC(=O)[C@H](C)NC(=O)[C@H](CCC(N)=O)NC(=O)[C@H](CCC(=O)O)NC(=O)[C@H](CC(=O)O)NC(=O)[C@H](CC(C)C)NC(=O)[C@@H](NC(=O)[C@@H](NC(=O)[C@H](C)NC(=O)[C@H](CC(C)C)NC(=O)[C@H](CCC(=O)O)NC(=O)[C@H](CO)NC(=O)[C@H](CO)NC(=O)[C@H](Cc1ccccc1)NC(=O)[C@@H](NC(=O)CNC(=O)[C@H](CCC(=O)O)NC(=O)C(C)(C)NC(=O)[C@@H](N)Cc1c[nH]cn1)[C@@H](C)O)[C@@H](C)O)[C@@H](C)CC)[C@@H](C)CC)C(=O)N[C@@H](C)C(=O)N[C@@H](Cc1c[nH]cn1)C(=O)N[C@@H](CCCCN)C(=O)N[C@H](C(=O)N[C@H](C(=O)N[C@@H](CC(=O)O)C(=O)N[C@H](CCCCN)C(=O)N[C@H](CCCCN)C(=O)N[C@H](CCCCN)C(=O)N[C@H](CCCCN)C(=O)N[C@H](CCCCN)C(=O)N[C@H](CCCCNC(=O)CC[C@H](NC(=O)CCCCCCCCCCCCCCCCC(=O)O)C(=O)O)C(N)=O)[C@@H](C)O)[C@@H](C)CC", "note": "[Compound 38] (HELM PEPTIDE1{H.[Aib].E.G.T.F.S.S.E.L.A.T.I.L.D.E.Q.A.A.R.D.F.I.A.W.L.I.A.H.K.I.T.D.[dK].[dK].[dK].[dK].[dK].[dK].[am]}|PEPTIDE2{[O=C(O)CCCCCCCCCCCCCCCCC(=O)[*:2]].[gGlu]}$PEPTIDE1,PEPTIDE2,39:R3-2:R2$$$V2.0)", "values": [{"measurement": "EC50", "setting": "human GLP-1 receptor", "value": 0.25, "unit": "nM"}]}
